Legend:
LOX IMVI = assay: cells; settings: Homo sapiens, 48 h
UACC-62 = assay: cells; settings: Homo sapiens, UACC-62, 48 h
OVCAR-4 = assay: cells; settings: Homo sapiens, OVCAR-4, 48 h
HL-60(TB) = assay: cells; settings: Homo sapiens, HL-60, 48 h
T-47D = assay: cells; settings: Homo sapiens, T47D, 48 h
RPMI-8226 = assay: cells; settings: Homo sapiens, RPMI-8226, 48 h
U251 = assay: cells; settings: Homo sapiens, U-251, 48 h
CCRF-CEM = assay: cells; settings: Homo sapiens, 48 h
EKVX = assay: cells; settings: Homo sapiens, 48 h
BT-549 = assay: cells; settings: Homo sapiens, BT-549, 48 h
MALME-3M = assay: cells; settings: Homo sapiens, 48 h
M14 = assay: cells; settings: Homo sapiens, M14, 48 h
SN12C = assay: cells; settings: Homo sapiens, 48 h
SF-268 = assay: cells; settings: Homo sapiens, SF-268, 48 h
MDA-MB-231/ATCC = assay: cells; settings: Homo sapiens, MDA-MB-231, 48 h
UACC-257 = assay: cells; settings: Homo sapiens, UACC-257, 48 h
60 cancer cell lines = assay: NCI-60 one-dose screen (10 μM); format: cell-based; settings: Homo sapiens; one dose of 10 μM, mean over 60 cancer cell lines; read-out: Mean Growth Percent (MGP)
From the text: Additionally, the mean of the growth percentages (MGP) of each compound against all the 60 cancer cell lines is also reported, which is used as one of the selection criteria to continue with tests at five concentration doses.

HCT-116 = assay: cells; settings: Homo sapiens, HCT-116, 48 h
NCI-H322M = assay: cells; settings: Homo sapiens, 48 h
SF-539 = assay: cells; settings: Homo sapiens, SF-539, 48 h
MCF7 = assay: cells; settings: Homo sapiens, MCF7, 48 h
HS 578T = assay: cells; settings: Homo sapiens, 48 h
HT29 = assay: cells; settings: Homo sapiens, HT-29, 48 h
[1] = Hemolytic activity, spectrophotometric; format: cell-based, human; settings: human, human red blood cells (huRBC), 5% hematocrit, 200 μg/mL, 37 °C
OVCAR-3 = assay: cells; settings: Homo sapiens, OVCAR-3, 48 h
HOP-62 = assay: cells; settings: Homo sapiens, HOP-62, 48 h
SF-295 = assay: cells; settings: Homo sapiens, SF-295, 48 h
MDA-MB-435 = assay: cells; settings: Homo sapiens, MDA-MB-435, 48 h
DU-145 = assay: cells; settings: Homo sapiens, DU-145, 48 h
PC-3 = assay: cells; settings: Homo sapiens, PC-3, 48 h
A498 = assay: cells; settings: Homo sapiens, A498, 48 h
OVCAR-5 = assay: cells; settings: Homo sapiens, OVCAR-5, 48 h
OVCAR-8 = assay: cells; settings: Homo sapiens, OVCAR-8, 48 h
ACHN = assay: cells; settings: Homo sapiens, 48 h
NCI-H226 = assay: cells; settings: Homo sapiens, NCI-H226, 48 h
COLO 205 = assay: cells; settings: Homo sapiens, COLO 205, 48 h
UO-31 = assay: cells; settings: Homo sapiens, UO-31, 48 h
MOLT-4 = assay: cells; settings: Homo sapiens, MOLT-4, 48 h

`Nc1nc(N)c2c(n1)NC(c1ccc(F)cc1)CC(c1ccc(Nc3nc(NCCO)nc(Nc4ccc(Cl)cc4)n3)cc1)=N2` (stereo not shown) [33f] showed a GI50 (LOX IMVI) of 1520 nM, a GI50 (UACC-62) of 1960 nM and a GI50 (OVCAR-4) of 1930 nM. For the same molecule, the CC50 (OVCAR-4; read-out: LC50) was > 100 µM, the GI50 (HL-60(TB)) was 863 nM and the CC50 (HL-60(TB); read-out: LC50) was > 100 µM. The GI50 (T-47D) was 1270 nM, the CC50 (T-47D; read-out: LC50) was 8.09 µM and the GI50 (RPMI-8226) was 1010 nM. For the same molecule, the CC50 (RPMI-8226; read-out: LC50) was > 100 µM, the GI50 (U251; U251, 48 h) was 1370 nM and the CC50 (U251; read-out: LC50) was 5.43 µM. For the same molecule, the GI50 (CCRF-CEM) was 754 nM, the CC50 (CCRF-CEM; read-out: LC50) was > 100 µM and the GI50 (EKVX) was 1660 nM. The CC50 (EKVX; read-out: LC50) was 24 µM, the GI50 (BT-549) was 1560 nM and the CC50 (BT-549; read-out: LC50) was 6.47 µM. For the same molecule, the GI50 (MALME-3M) was 1660 nM, the GI50 (M14) was 1660 nM and the CC50 (M14; read-out: LC50) was 6.58 µM. For the same molecule, the GI50 (SN12C) was 2080 nM, the CC50 (SN12C; read-out: LC50) was > 100 µM and the GI50 (SF-268) was 2850 nM. The CC50 (SF-268; read-out: LC50) was 76 µM, the GI50 (MDA-MB-231/ATCC) was 1780 nM and the GI50 (UACC-257) was 1850 nM. It also gave a CC50 (UACC-257; read-out: LC50) of 6.69 µM, an activity at 10 µM (60 cancer cell lines) of -3.41% and a GI50 (HCT-116) of 1200 nM. The CC50 (HCT-116; read-out: LC50) was 5.23 µM, the GI50 (NCI-H322M) was 2430 nM and the CC50 (NCI-H322M; read-out: LC50) was 33.5 µM. The GI50 (SF-539) was 1560 nM, the CC50 (SF-539; read-out: LC50, SF-539, 48 h) was 6.36 µM and the GI50 (MCF7) was 956 nM. For the same molecule, the CC50 (MCF7; read-out: LC50) was 6 µM, the GI50 (HS 578T) was 2040 nM and the CC50 (HS 578T; read-out: LC50) was > 100 µM. For the same molecule, the GI50 (HT29) was 1420 nM, the CC50 (HT29; read-out: LC50) was 7.01 µM and the hemolysis at 24 h, 200 µg/mL [1] was 5%. It also gave a GI50 (OVCAR-3) of 1580 nM, a CC50 (OVCAR-3; read-out: LC50) of 6.82 µM and a GI50 (HOP-62) of 1770 nM. For the same molecule, the CC50 (HOP-62; read-out: LC50) was 11.7 µM, the GI50 (SF-295) was 1960 nM and the CC50 (SF-295; read-out: LC50) was 7.15 µM. It also gave a GI50 (MDA-MB-435) of 1700 nM, a CC50 (MDA-MB-435; read-out: LC50) of 7.42 µM and a GI50 (DU-145) of 1750 nM. The CC50 (DU-145; read-out: LC50) was 7 µM, the GI50 (PC-3) was 1720 nM and the CC50 (PC-3; read-out: LC50) was > 100 µM. For the same molecule, the GI50 (A498) was 3.72 µM, the CC50 (A498; read-out: LC50) was 39.1 µM and the GI50 (OVCAR-5) was 5.1 µM. For the same molecule, the CC50 (OVCAR-5; read-out: LC50) was > 100 µM, the GI50 (OVCAR-8) was 1160 nM and the CC50 (OVCAR-8; read-out: LC50) was 6.81 µM. For the same molecule, the GI50 (ACHN) was 3.22 µM, the CC50 (ACHN; read-out: LC50) was > 100 µM and the GI50 (NCI-H226) was 2490 nM. The CC50 (NCI-H226; read-out: LC50) was 37.9 µM, the GI50 (COLO 205) was 1490 nM and the CC50 (COLO 205; read-out: LC50) was 5.8 µM. For the same molecule, the GI50 (UO-31) was 3.07 µM, the CC50 (UO-31; read-out: LC50) was > 100 µM and the GI50 (MOLT-4) was 532 nM. For the same molecule, the CC50 (MOLT-4; read-out: LC50) was > 100 µM.

Reference: article PMC11012124, “Synthesis of Novel Triazine-Based Chalcones and 8,9-dihydro-7H-pyrimido[4,5-b][1,4]diazepines as Potential Leads in the Search of Anticancer, Antibacterial and Antifungal Agents” (International Journal of Molecular Sciences, 2024)
